In patent US10721934B2, “Enhanced preservative” (Arch Chemicals, Inc., priority 2013, dated 2020):

What was measured:
Type in all cases: cell-based
[1] = tested on: Pseudomonas aeruginosa ATCC 15442; assay: Minimum Inhibitory Concentration (MIC) test, 96 well microtiter plate; details: single chemical
Procedure: Microorganisms: Pseudomonas aeruginosa ATCC 15442
(§1) MIC set up: A 96 well microtiter plate Minimum Inhibitory Concentration (MIC) test was run in broth suitable for the test organism. Serially diluted actives were prepared in sterilized water, and the start-up concentration varied depending on the efficacy range. Inocula prepared in 2× suitable broth was added into each well, and the final concentrations of bacteria were adjusted to approximately 5×10^5.

Aspergillus brasiliensis = assay: MIC test, 96 well microtiter plate; details: single chemical
Procedure: as §1
(§2) Further MIC tests were conducted using different amine compounds in combination with a pyrithione and two different isothiazolinones. The procedures described in Example No. 1 were used.

Aureobasidium pullulans = assay: MIC test, 96 well microtiter plate; details: single chemical
Procedure: as §1, §2

Candida albicans = assay: MIC test, 96 well microtiter plate; details: single chemical
Procedure: as §1, §2

Escherichia coli = assay: MIC test, 96 well microtiter plate; details: single chemical
Procedure: as §1, §2

Staphylococcus aureus = assay: MIC test, 96 well microtiter plate; details: single chemical
Procedure: as §1, §2

[2] = tested on: mixed bacterial inoculum (Pseudomonas aeruginosa, Enterobacter cloacae, Escherichia coli, Acinetobacter calcoaceticus); assay: Repeated inoculation of standard acrylic paint, streak plate rating
Procedure: In the following experiments, a pyrithione, an isothiazolinone, and a biocide enhancing agent in accordance with the present disclosure were combined with a standard acrylic paint. The concentrations of the pyrithione, the isothiazolinone and the biocide enhancing agent were varied. The pyrithione, the isothiazolinone and the biocide enhancing agent were added alone and in various mixtures to the standard acrylic paint.
The acrylic paint was then inoculated three times using a mixed bacterial inoculum. The bacterial inoculum, which comprised a bacterial suspension in water, contained the following four bacteria in equal proportions.
The samples were streak plated at 24, 48, and 72 hours after inoculation. The streak plates were rated as follows;

`O=c1[nH]sc2ccccc12` [BIT, 1,2 Benzisothiazolin-3-one] was tested, and the “Minimum Inhibitory Concentration” value [1] was 32.5 ppm, the “Minimum Inhibitory Concentration” value (Aspergillus brasiliensis) was 32.5 ppm and the “Minimum Inhibitory Concentration” value (Aureobasidium pullulans) was 4.1 ppm. The “Minimum Inhibitory Concentration” value (Candida albicans) was 8.1 ppm, the “Minimum Inhibitory Concentration” value (Escherichia coli) was 6.1 ppm and the “Minimum Inhibitory Concentration” value (Staphylococcus aureus) was 8.1 ppm. The streak plate rating ([2]; Set Five, BIT 50 ppm, 1st inoculation 24 h) was 5 (>45 viable microorganisms Severely contaminated), the streak plate rating ([2]; Set Five, BIT 50 ppm, 1st inoculation 48 h) was 5 (>45 viable microorganisms Severely contaminated) and the streak plate rating ([2]; Set Five, BIT 50 ppm, 1st inoculation 72 h) was 5 (>45 viable microorganisms Severely contaminated). For the same molecule, the streak plate rating ([2]; Set Five, BIT 50 ppm, 2nd inoculation 24 h) was 5 (>45 viable microorganisms Severely contaminated), the streak plate rating ([2]; Set Five, BIT 50 ppm, 2nd inoculation 48 h) was 5 (>45 viable microorganisms Severely contaminated) and the streak plate rating ([2]; Set Five, BIT 50 ppm, 2nd inoculation 72 h) was 5 (>45 viable microorganisms Severely contaminated). For the same molecule, the streak plate rating ([2]; Set Five, BIT 50 ppm, 3rd inoculation 24 h) was 5 (>45 viable microorganisms Severely contaminated), the streak plate rating ([2]; Set Five, BIT 50 ppm, 3rd inoculation 48 h) was 5 (>45 viable microorganisms Severely contaminated) and the streak plate rating ([2]; Set Five, BIT 50 ppm, 3rd inoculation 72 h) was 5 (>45 viable microorganisms Severely contaminated). For the same molecule, the streak plate rating ([2]; Set Four, BIT 50 ppm, 1st inoculation 24 h) was 5 (>45 viable microorganisms Severely contaminated), the streak plate rating ([2]; Set Four, BIT 50 ppm, 1st inoculation 48 h) was 5 (>45 viable microorganisms Severely contaminated) and the streak plate rating ([2]; Set Four, BIT 50 ppm, 1st inoculation 72 h) was 5 (>45 viable microorganisms Severely contaminated). For the same molecule, the streak plate rating ([2]; Set Four, BIT 50 ppm, 2nd inoculation 24 h) was 5 (>45 viable microorganisms Severely contaminated), the streak plate rating ([2]; Set Four, BIT 50 ppm, 2nd inoculation 48 h) was 5 (>45 viable microorganisms Severely contaminated) and the streak plate rating ([2]; Set Four, BIT 50 ppm, 2nd inoculation 72 h) was 5 (>45 viable microorganisms Severely contaminated). The streak plate rating ([2]; Set Four, BIT 50 ppm, 3rd inoculation 24 h) was 5 (>45 viable microorganisms Severely contaminated), the streak plate rating ([2]; Set Four, BIT 50 ppm, 3rd inoculation 48 h) was 5 (>45 viable microorganisms Severely contaminated) and the streak plate rating ([2]; Set Four, BIT 50 ppm, 3rd inoculation 72 h) was 5 (>45 viable microorganisms Severely contaminated). For the same molecule, the streak plate rating ([2]; Set One, BIT 60 ppm, 1st inoculation 24 h) was 5 (>45 viable microorganisms Severely contaminated), the streak plate rating ([2]; Set One, BIT 60 ppm, 1st inoculation 48 h) was 5 (>45 viable microorganisms Severely contaminated) and the streak plate rating ([2]; Set One, BIT 60 ppm, 1st inoculation 72 h) was 5 (>45 viable microorganisms Severely contaminated). For the same molecule, the streak plate rating ([2]; Set One, BIT 60 ppm, 2nd inoculation 24 h) was 5 (>45 viable microorganisms Severely contaminated), the streak plate rating ([2]; Set One, BIT 60 ppm, 2nd inoculation 48 h) was 5 (>45 viable microorganisms Severely contaminated) and the streak plate rating ([2]; Set One, BIT 60 ppm, 3rd inoculation 24 h) was 5 (>45 viable microorganisms Severely contaminated). The streak plate rating ([2]; Set One, BIT 60 ppm, 3rd inoculation 48 h) was 5 (>45 viable microorganisms Severely contaminated), the streak plate rating ([2]; Set One, BIT 60 ppm, 3rd inoculation 72 h) was 5 (>45 viable microorganisms Severely contaminated) and the streak plate rating ([2]; Set One, BIT 120 ppm, 1st inoculation 24 h) was 1 (1-5 viable microorganisms Very lightly contaminated). For the same molecule, the streak plate rating ([2]; Set One, BIT 120 ppm, 1st inoculation 48 h) was 3 (16-30 viable microorganisms Moderately contaminated), the streak plate rating ([2]; Set One, BIT 120 ppm, 1st inoculation 72 h) was 3 (16-30 viable microorganisms Moderately contaminated) and the streak plate rating ([2]; Set One, BIT 120 ppm, 2nd inoculation 24 h) was 5 (>45 viable microorganisms Severely contaminated). The streak plate rating ([2]; Set One, BIT 120 ppm, 2nd inoculation 48 h) was 5 (>45 viable microorganisms Severely contaminated), the streak plate rating ([2]; Set One, BIT 120 ppm, 3rd inoculation 24 h) was 5 (>45 viable microorganisms Severely contaminated) and the streak plate rating ([2]; Set One, BIT 120 ppm, 3rd inoculation 48 h) was 5 (>45 viable microorganisms Severely contaminated). For the same molecule, the streak plate rating ([2]; Set One, BIT 120 ppm, 3rd inoculation 72 h) was 5 (>45 viable microorganisms Severely contaminated), the streak plate rating ([2]; Set Three, BIT 50 ppm, 1st inoculation 24 h) was 5 (>45 viable microorganisms Severely contaminated) and the streak plate rating ([2]; Set Three, BIT 50 ppm, 1st inoculation 48 h) was 5 (>45 viable microorganisms Severely contaminated). The streak plate rating ([2]; Set Three, BIT 50 ppm, 1st inoculation 72 h) was 5 (>45 viable microorganisms Severely contaminated), the streak plate rating ([2]; Set Three, BIT 50 ppm, 2nd inoculation 24 h) was 5 (>45 viable microorganisms Severely contaminated) and the streak plate rating ([2]; Set Three, BIT 50 ppm, 2nd inoculation 48 h) was 5 (>45 viable microorganisms Severely contaminated). For the same molecule, the streak plate rating ([2]; Set Three, BIT 50 ppm, 2nd inoculation 72 h) was 5 (>45 viable microorganisms Severely contaminated), the streak plate rating ([2]; Set Three, BIT 50 ppm, 3rd inoculation 24 h) was 5 (>45 viable microorganisms Severely contaminated) and the streak plate rating ([2]; Set Three, BIT 50 ppm, 3rd inoculation 48 h) was 5 (>45 viable microorganisms Severely contaminated). The streak plate rating ([2]; Set Three, BIT 50 ppm, 3rd inoculation 72 h) was 5 (>45 viable microorganisms Severely contaminated), the streak plate rating ([2]; Set Two, BIT 25 ppm, 1st inoculation 24 h) was 5 (>45 viable microorganisms Severely contaminated) and the streak plate rating ([2]; Set Two, BIT 25 ppm, 1st inoculation 48 h) was 5 (>45 viable microorganisms Severely contaminated). The streak plate rating ([2]; Set Two, BIT 25 ppm, 1st inoculation 72 h) was 5 (>45 viable microorganisms Severely contaminated), the streak plate rating ([2]; Set Two, BIT 25 ppm, 2nd inoculation 24 h) was 5 (>45 viable microorganisms Severely contaminated) and the streak plate rating ([2]; Set Two, BIT 25 ppm, 2nd inoculation 48 h) was 5 (>45 viable microorganisms Severely contaminated). The streak plate rating ([2]; Set Two, BIT 25 ppm, 2nd inoculation 72 h) was 5 (>45 viable microorganisms Severely contaminated), the streak plate rating ([2]; Set Two, BIT 25 ppm, 3rd inoculation 24 h) was 5 (>45 viable microorganisms Severely contaminated) and the streak plate rating ([2]; Set Two, BIT 25 ppm, 3rd inoculation 48 h) was 5 (>45 viable microorganisms Severely contaminated). The streak plate rating ([2]; Set Two, BIT 25 ppm, 3rd inoculation 72 h) was 5 (>45 viable microorganisms Severely contaminated), the streak plate rating ([2]; Set Two, BIT 50 ppm, 1st inoculation 24 h) was 5 (>45 viable microorganisms Severely contaminated) and the streak plate rating ([2]; Set Two, BIT 50 ppm, 1st inoculation 48 h) was 5 (>45 viable microorganisms Severely contaminated). For the same molecule, the streak plate rating ([2]; Set Two, BIT 50 ppm, 1st inoculation 72 h) was 5 (>45 viable microorganisms Severely contaminated), the streak plate rating ([2]; Set Two, BIT 50 ppm, 2nd inoculation 24 h) was 5 (>45 viable microorganisms Severely contaminated) and the streak plate rating ([2]; Set Two, BIT 50 ppm, 2nd inoculation 48 h) was 5 (>45 viable microorganisms Severely contaminated). The streak plate rating ([2]; Set Two, BIT 50 ppm, 2nd inoculation 72 h) was 5 (>45 viable microorganisms Severely contaminated), the streak plate rating ([2]; Set Two, BIT 50 ppm, 3rd inoculation 24 h) was 5 (>45 viable microorganisms Severely contaminated) and the streak plate rating ([2]; Set Two, BIT 50 ppm, 3rd inoculation 48 h) was 5 (>45 viable microorganisms Severely contaminated). The streak plate rating ([2]; Set Two, BIT 50 ppm, 3rd inoculation 72 h) was 5 (>45 viable microorganisms Severely contaminated).
